Target: T1, P2X purinoceptor 4 (Homo sapiens, UniProt Q99571)
T1 sequence (Q99571 whole entry): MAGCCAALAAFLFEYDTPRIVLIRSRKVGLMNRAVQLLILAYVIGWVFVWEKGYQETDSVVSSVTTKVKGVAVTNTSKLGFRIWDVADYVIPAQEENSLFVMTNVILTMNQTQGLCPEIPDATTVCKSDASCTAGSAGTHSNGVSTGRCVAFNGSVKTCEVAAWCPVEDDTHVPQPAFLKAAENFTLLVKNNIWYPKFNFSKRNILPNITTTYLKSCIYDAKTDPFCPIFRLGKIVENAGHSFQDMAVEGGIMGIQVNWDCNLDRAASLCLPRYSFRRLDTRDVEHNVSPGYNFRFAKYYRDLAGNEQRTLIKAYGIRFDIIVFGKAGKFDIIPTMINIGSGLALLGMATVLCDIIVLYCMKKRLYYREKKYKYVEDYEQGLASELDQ
Assay: Inhibition of human P2X4 stably expressed in human HEK293 cells assessed as intracellular calcium flux incubated for 30 mins in presence of agonist Benzoylbenzoyl-ATP by Fluo8-AM dye based FLIPR assay
Format: cell-based

IC50 | Compound
0.143 µM | CC(=O)N(c1ccc2ncoc2c1)c1cc(NC(=O)Cc2cccc(F)c2Cl)ccn1
0.141 µM | CC(=O)N(c1ccc2ncoc2c1)c1cc(NC(=O)Cc2c(Cl)cccc2Cl)ccn1
0.142 µM | CC(=O)N(c1ccc2ncsc2c1)c1cc(NC(=O)Cc2ccccc2Cl)ccn1
0.171 µM | CC(=O)N(c1cc(NC(=O)Cc2c(Cl)cccc2Cl)ccn1)c1ccncc1F
0.168 µM | CC(=O)N(c1ccc2ncoc2c1)c1cc(NC(=O)Cc2ccccc2Cl)ccn1
0.157 µM | CC(=O)N(c1ccn2nccc2c1)c1cc(NC(=O)Cc2c(Cl)cccc2Cl)ccn1

Source: ChEMBL document CHEMBL5131526, “Substituted N-Heteroaryl-N-Pyridinylacetamides as P2X4 Modulators for Treating Pain” (ACS Med Chem Lett, 2022)
